Results: patent publication US6469146B1, “Radiopharmaceutical products suitable for the selective labeling of lymphocytes, and their preparation” (Cis Bio International, priority 2000, dated 2002)

Legend:
leukocytes = conditions: in the presence of blood cells (erythrocytes, leukocytes, platelets); documents [3], [4], [6]; cited from earlier work
human blood = assay: Labeling of blood cells: yield of cell labeling in whole blood; assay type: cell-based; conditions: 2 mCi (74 MBq) in 3 mL fresh human blood, 10 minutes, after washings
Description: (§1) The radiopharmaceuticals of table I (2 mCi; 74 MBq) are incubated in 3 mL of a fresh sample of human blood for 10 minutes under slow shaking. The blood composition depends upon each sample taken from healthy volunteers (average composition: 1.6±0.3.10^10 Red Globules (RG) and 2.2±0.3.10^7 White Globules (WG) with 1.2±0.3.10^7 Polymorphs (57±9%) and 0.7±0.3.10^7 Lymphocytes (35±4%)]. Non-bound radioactivity is removed by successive washings (2×10 mL of RPMI culture medium 1640) of 10 minutes at 600 g. The yield of cell labeling is determined in a CAPINTEC CRC 120 activimeter. Cell viability is controlled by the Trypan blue exclusion test.
(§2) The results obtained, namely the labeling yield (Yield) and the percentages of activity in the separated fractions are given in tables 3 to 5.

whole blood = assay: Cell separation on whole blood (Polymorphprep gradient), activity in separated fractions; assay type: cell-based, human; parameters: tested at 2 mCi (74 MBq) in 3 mL blood; conditions: for Cell separation on whole blood (activity %): Polymorphprep: fraction: Polymorphprep gradient; for Cell separation on whole blood (activity %): Erythrocytes: fraction: erythrocytes; for Cell separation on whole blood (activity %): Leukocytes: fraction: leukocytes; for Cell separation on whole blood (activity %): Medium: fraction: medium
Description: as §1, §2
In a first experiment, a separation of the blood constituents is made on a double density Polymorphprep® gradient.
Whole blood from healthy volunteers is labeled with 2 mCi of [^99mTc(ArCS3)2(ArCS2)] following the method described above. The blood constituents are then separated by the Polymorphprep® double density gradient into two separate fractions: lymphocytes and polymorphs/erythrocytes. The whole blood, diluted in 2-3 mL RPMI, is initially delicately placed on the Polymorphprep® gradient and then centrifuged (300 g, 20 min, 37° C.). […] Counting is made on each fraction using a MAXM Y07 00 367 counter in order to confirm cell constitution.

Compound: CCON(CC)C(=S)[S][99Tc](#[N])[S]C(=S)N(CC)OCC [[^99mTcN(NOET)2], nitrurobis(N-ethoxy-N-ethyldithiocarbamato)technetium-99m]
- blood cell selectivity of labeling (leukocytes): leukocyte labeling, of granulocytes in particular

Compound: [^99mTCN(CH3)(CH2)8CS2)2]
- blood cell selectivity of labeling (leukocytes): selectivity for lymphocytes

Compound: [^99mTc(2-Me-naphCS3)2(2-Me-naphCS2)] [Example 25]
- Yield (±3%) of cell labeling (human blood): 96%
- Cell separation on whole blood (activity %): Polymorphprep (whole blood): 4%
- Cell separation on whole blood (activity %): Erythrocytes (whole blood): 10%
- Cell separation on whole blood (activity %): Leukocytes (whole blood): 85%
- Cell separation on whole blood (activity %): Medium (whole blood): 1%

Compound: [^99mTc(2-Me-naphCS3)2(2-Me-naphCS2)] [Example 26]
- Yield (±3%) of cell labeling (human blood): 85%
- Cell separation on whole blood (activity %): Polymorphprep (whole blood): 2%
- Cell separation on whole blood (activity %): Erythrocytes (whole blood): 15%
- Cell separation on whole blood (activity %): Leukocytes (whole blood): 79%
- Cell separation on whole blood (activity %): Medium (whole blood): 4%

Compound: [^99mTc(C6H12CS3)2CS2(C6H12CS2)] [Example 30]
- Yield (±3%) of cell labeling (human blood): 97%
- Cell separation on whole blood (activity %): Polymorphprep (whole blood): 10%
- Cell separation on whole blood (activity %): Erythrocytes (whole blood): 13%
- Cell separation on whole blood (activity %): Leukocytes (whole blood): 75%
- Cell separation on whole blood (activity %): Medium (whole blood): 2%

Compound: [^99mTc(C6H12CS3)2CS2(C6H12CS2)] [Example 31]
- Yield (±3%) of cell labeling (human blood): 63%
- Cell separation on whole blood (activity %): Polymorphprep (whole blood): 3%
- Cell separation on whole blood (activity %): Erythrocytes (whole blood): 29%
- Cell separation on whole blood (activity %): Leukocytes (whole blood): 68%
